Columns and labels:
Conditions in all cases: exposure time: 72 h
[1] = test system: E57 (patient-derived glioblastoma stem cells of mesenchymal subtype); assay: surviving fraction (nuclei count normalised to DMSO); higher = more cells surviving (less toxic)
[2] = test system: E21 (patient-derived glioblastoma stem cells of mesenchymal subtype); assay: as above
[3] = test system: FT3469 (normal neural stem cell line); assay: as above
[4] = test system: E13 (patient-derived glioblastoma stem cells of classical subtype); assay: as above
[5] = test system: E28 (patient-derived glioblastoma stem cells of classical subtype); assay: as above
[6] = test system: E31 (patient-derived glioblastoma stem cells of proneural subtype); assay: as above
[7] = test system: E34 (patient-derived glioblastoma stem cells of proneural subtype); assay: as above
[8] = test system: E57; assay: phenotypic distance (Euclidean, principal components) from DMSO controls (arbitrary units); higher = stronger morphological change
[9] = test system: E21; assay: as above
[10] = test system: FT3469; assay: as above
[11] = test system: E13; assay: as above
[12] = test system: E28; assay: as above
[13] = test system: E31; assay: as above
[14] = test system: E34; assay: as above
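Throughout, for phenotypic distance (Euclidean, principal components) from DMSO controls: cell Painting imaging in 384-well plates, CellProfiler features reduced to at least 20 principal components, Euclidean distance versus same-plate DMSO vehicle wells (0.1% v/v), median over six images per well.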
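Throughout, for surviving fraction (nuclei count normalised to DMSO): nuclei counted by high-content imaging of Hoechst-stained cells in laminin-coated 384-well plates, relative to 0.1% DMSO vehicle wells, with staurosporine as cell-death control.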

CCCCC1C(=O)N(c2ccccc2)N(c2ccc(O)cc2)C1=O (centres undefined) [Oxyphenbutazone]
Conditions	phenotypic distance	surviving fraction
[1], 4.1 nM	–	1.04
[1], 12.3 nM	–	1.02
[1], 37 nM	–	0.983
[1], 111.1 nM	–	0.979
[1], 333.3 nM	–	1.06
[1], 1000 nM	–	0.965
[1], 3000 nM	–	0.938
[2], 4.1 nM	–	1.04
[2], 12.3 nM	–	1.09
[2], 37 nM	–	0.947
[2], 111.1 nM	–	1.05
[2], 333.3 nM	–	0.957
[2], 1000 nM	–	1.05
[2], 3000 nM	–	1.1
[3], 4.1 nM	–	0.985
[3], 12.3 nM	–	0.955
[3], 37 nM	–	0.951
[3], 111.1 nM	–	1.13
[3], 333.3 nM	–	1.03
[3], 1000 nM	–	0.989
[3], 3000 nM	–	1.08
[4], 4.1 nM	–	1.06
[4], 12.3 nM	–	1.12
[4], 37 nM	–	0.991
[4], 111.1 nM	–	1.1
[4], 333.3 nM	–	1.11
[4], 1000 nM	–	1.04
[4], 3000 nM	–	0.978
[5], 4.1 nM	–	1.06
[5], 12.3 nM	–	1.05
[5], 37 nM	–	1.06
[5], 111.1 nM	–	1.06
[5], 333.3 nM	–	0.96
[5], 1000 nM	–	1.02
[5], 3000 nM	–	1.07
[6], 4.1 nM	–	0.93
[6], 12.3 nM	–	0.906
[6], 37 nM	–	0.918
[6], 111.1 nM	–	1.01
[6], 333.3 nM	–	0.939
[6], 1000 nM	–	1.07
[6], 3000 nM	–	0.941
[7], 4.1 nM	–	0.971
[7], 12.3 nM	–	1.07
[7], 37 nM	–	0.978
[7], 111.1 nM	–	1.07
[7], 333.3 nM	–	1.04
[7], 1000 nM	–	1.11
[7], 3000 nM	–	1.01
[8], 4.1 nM	0.925	–
[8], 12.3 nM	0.967	–
[8], 37 nM	0.794	–
[8], 111.1 nM	0.629	–
[8], 333.3 nM	0.441	–
[8], 1000 nM	0.546	–
[8], 3000 nM	0.652	–
[9], 4.1 nM	0.965	–
[9], 12.3 nM	0.677	–
[9], 37 nM	0.635	–
[9], 111.1 nM	0.699	–
[9], 333.3 nM	0.588	–
[9], 1000 nM	0.698	–
[9], 3000 nM	0.735	–
[10], 4.1 nM	0.918	–
[10], 12.3 nM	0.982	–
[10], 37 nM	0.908	–
[10], 111.1 nM	0.496	–
[10], 333.3 nM	0.356	–
[10], 1000 nM	0.51	–
[10], 3000 nM	0.472	–
[11], 4.1 nM	0.562	–
[11], 12.3 nM	0.782	–
[11], 37 nM	0.706	–
[11], 111.1 nM	0.835	–
[11], 333.3 nM	1.34	–
[11], 1000 nM	0.708	–
[11], 3000 nM	0.404	–
[12], 4.1 nM	0.723	–
[12], 12.3 nM	0.56	–
[12], 37 nM	0.689	–
[12], 111.1 nM	0.5	–
[12], 333.3 nM	0.608	–
[12], 1000 nM	0.532	–
[12], 3000 nM	0.618	–
[13], 4.1 nM	0.939	–
[13], 12.3 nM	1.97	–
[13], 37 nM	0.848	–
[13], 111.1 nM	0.364	–
[13], 333.3 nM	0.728	–
[13], 1000 nM	0.522	–
[13], 3000 nM	0.632	–
[14], 4.1 nM	0.618	–
[14], 12.3 nM	0.62	–
[14], 37 nM	0.522	–
[14], 111.1 nM	0.833	–
[14], 333.3 nM	0.434	–
[14], 1000 nM	1.17	–
[14], 3000 nM	0.608	–

Cc1cccn2c(=O)c(-c3nnn[nH]3)cnc12 [Pemirolast potassium]
Conditions	phenotypic distance	surviving fraction
[1], 4.1 nM	–	0.965
[1], 12.3 nM	–	0.992
[1], 37 nM	–	0.959
[1], 111.1 nM	–	1.09
[1], 333.3 nM	–	0.986
[1], 1000 nM	–	1.01
[1], 3000 nM	–	1.01
[2], 4.1 nM	–	0.923
[2], 12.3 nM	–	0.982
[2], 37 nM	–	0.908
[2], 111.1 nM	–	0.88
[2], 333.3 nM	–	0.953
[2], 1000 nM	–	1.01
[2], 3000 nM	–	1.1
[3], 4.1 nM	–	1.01
[3], 12.3 nM	–	0.959
[3], 37 nM	–	1.08
[3], 111.1 nM	–	1.07
[3], 333.3 nM	–	1.19
[3], 1000 nM	–	1.09
[3], 3000 nM	–	1.23
[4], 4.1 nM	–	0.925
[4], 12.3 nM	–	0.971
[4], 37 nM	–	1
[4], 111.1 nM	–	1.04
[4], 333.3 nM	–	0.947
[4], 1000 nM	–	0.974
[4], 3000 nM	–	1.18
[5], 4.1 nM	–	1.07
[5], 12.3 nM	–	1.11
[5], 37 nM	–	1.06
[5], 111.1 nM	–	0.959
[5], 333.3 nM	–	1.14
[5], 1000 nM	–	1.05
[5], 3000 nM	–	1.22
[6], 4.1 nM	–	0.909
[6], 12.3 nM	–	0.917
[6], 37 nM	–	0.897
[6], 111.1 nM	–	0.921
[6], 333.3 nM	–	1.21
[6], 1000 nM	–	0.987
[6], 3000 nM	–	1.12
[7], 4.1 nM	–	1.09
[7], 12.3 nM	–	0.99
[7], 37 nM	–	1.04
[7], 111.1 nM	–	0.927
[7], 333.3 nM	–	1.15
[7], 1000 nM	–	1.03
[7], 3000 nM	–	1.11
[8], 4.1 nM	0.873	–
[8], 12.3 nM	0.412	–
[8], 37 nM	0.46	–
[8], 111.1 nM	0.618	–
[8], 333.3 nM	0.603	–
[8], 1000 nM	0.198	–
[8], 3000 nM	0.693	–
[9], 4.1 nM	0.761	–
[9], 12.3 nM	0.597	–
[9], 37 nM	3.74	–
[9], 111.1 nM	0.731	–
[9], 333.3 nM	0.31	–
[9], 1000 nM	0.294	–
[9], 3000 nM	0.896	–
[10], 4.1 nM	1.49	–
[10], 12.3 nM	0.577	–
[10], 37 nM	0.829	–
[10], 111.1 nM	0.485	–
[10], 333.3 nM	0.522	–
[10], 1000 nM	0.561	–
[10], 3000 nM	1.16	–
[11], 4.1 nM	0.849	–
[11], 12.3 nM	0.649	–
[11], 37 nM	2.3	–
[11], 111.1 nM	0.669	–
[11], 333.3 nM	3.24	–
[11], 1000 nM	0.451	–
[11], 3000 nM	0.784	–
[12], 4.1 nM	0.658	–
[12], 12.3 nM	0.636	–
[12], 37 nM	0.677	–
[12], 111.1 nM	0.665	–
[12], 333.3 nM	0.613	–
[12], 1000 nM	0.514	–
[12], 3000 nM	0.875	–
[13], 4.1 nM	1.22	–
[13], 12.3 nM	0.493	–
[13], 37 nM	0.804	–
[13], 111.1 nM	0.401	–
[13], 333.3 nM	0.814	–
[13], 1000 nM	0.403	–
[13], 3000 nM	0.73	–
[14], 4.1 nM	1.15	–
[14], 12.3 nM	0.672	–
[14], 37 nM	0.605	–
[14], 111.1 nM	0.603	–
[14], 333.3 nM	0.641	–
[14], 1000 nM	0.674	–
[14], 3000 nM	0.547	–

CC(C)CC(=O)N[C@H](C(=O)N[C@H](C(=O)N[C@@H](CC(C)C)[C@@H](O)CC(=O)N[C@@H](C)C(=O)N[C@@H](CC(C)C)[C@@H](O)CC(=O)O)C(C)C)C(C)C [Pepstatin A]
Conditions	phenotypic distance	surviving fraction
[1], 4.1 nM	–	1.04
[1], 12.3 nM	–	1.08
[1], 37 nM	–	1.01
[1], 111.1 nM	–	1.02
[1], 333.3 nM	–	1.11
[1], 1000 nM	–	0.978
[1], 3000 nM	–	0.901
[2], 4.1 nM	–	1.08
[2], 12.3 nM	–	1.07
[2], 37 nM	–	1.01
[2], 111.1 nM	–	1.05
[2], 333.3 nM	–	0.985
[2], 1000 nM	–	0.986
[2], 3000 nM	–	0.943
[3], 4.1 nM	–	0.981
[3], 12.3 nM	–	1.14
[3], 37 nM	–	1.08
[3], 111.1 nM	–	1.05
[3], 333.3 nM	–	1.07
[3], 1000 nM	–	0.993
[3], 3000 nM	–	1.07
[4], 4.1 nM	–	1.06
[4], 12.3 nM	–	1.08
[4], 37 nM	–	0.987
[4], 111.1 nM	–	0.969
[4], 333.3 nM	–	0.939
[4], 1000 nM	–	1.07
[4], 3000 nM	–	0.973
[5], 4.1 nM	–	0.953
[5], 12.3 nM	–	1.07
[5], 37 nM	–	1.14
[5], 111.1 nM	–	1.15
[5], 333.3 nM	–	1.06
[5], 1000 nM	–	0.989
[5], 3000 nM	–	0.92
[6], 4.1 nM	–	0.988
[6], 12.3 nM	–	1.1
[6], 37 nM	–	1
[6], 111.1 nM	–	0.89
[6], 333.3 nM	–	0.936
[6], 1000 nM	–	0.912
[6], 3000 nM	–	0.801
[7], 4.1 nM	–	1.05
[7], 12.3 nM	–	1.18
[7], 37 nM	–	0.988
[7], 111.1 nM	–	1.19
[7], 333.3 nM	–	0.959
[7], 1000 nM	–	1.03
[7], 3000 nM	–	0.906
[8], 4.1 nM	0.859	–
[8], 12.3 nM	0.774	–
[8], 37 nM	0.554	–
[8], 111.1 nM	0.499	–
[8], 333.3 nM	1.2	–
[8], 1000 nM	1.56	–
[8], 3000 nM	1.57	–
[9], 4.1 nM	0.741	–
[9], 12.3 nM	0.806	–
[9], 37 nM	0.616	–
[9], 111.1 nM	0.484	–
[9], 333.3 nM	0.724	–
[9], 1000 nM	0.99	–
[9], 3000 nM	0.905	–
[10], 4.1 nM	0.569	–
[10], 12.3 nM	0.775	–
[10], 37 nM	0.359	–
[10], 111.1 nM	0.585	–
[10], 333.3 nM	0.718	–
[10], 1000 nM	1.15	–
[10], 3000 nM	0.856	–
[11], 4.1 nM	3.07	–
[11], 12.3 nM	0.418	–
[11], 37 nM	0.54	–
[11], 111.1 nM	2.55	–
[11], 333.3 nM	0.565	–
[11], 1000 nM	1.06	–
[11], 3000 nM	1.04	–
[12], 4.1 nM	0.473	–
[12], 12.3 nM	0.719	–
[12], 37 nM	0.825	–
[12], 111.1 nM	1.73	–
[12], 333.3 nM	0.834	–
[12], 1000 nM	1.64	–
[12], 3000 nM	0.785	–
[13], 4.1 nM	0.911	–
[13], 12.3 nM	0.626	–
[13], 37 nM	0.894	–
[13], 111.1 nM	0.552	–
[13], 333.3 nM	0.816	–
[13], 1000 nM	0.799	–
[13], 3000 nM	0.946	–
[14], 4.1 nM	0.998	–
[14], 12.3 nM	1.15	–
[14], 37 nM	0.793	–
[14], 111.1 nM	1.47	–
[14], 333.3 nM	1.37	–
[14], 1000 nM	1.44	–
[14], 3000 nM	0.964	–
